According to EP0642343B1, “Acridine carboxamides for the treatment of cancer” (XENOVA LIMITED, priority 1992, dated 1993):
Read-outs that look alike come from different tables or passages of the source.

Columns and labels:
[1] = tested on: other human leukaemia cell lines; assay: Growth inhibition of leukaemia lines, continuous exposure, MTT staining; assay type: cell-based; details: range over other human leukaemia cell lines
Procedure: Tumour cell lines were cultured in 96-well plates. […] Primary cultures were incubated at 37°C in sealed perspex boxes containing a humidified atmosphere of 5% CO2 and 5% O2 in nitrogen for 7 days. 5-Methyl-[^3H]-thymidine (20 Ci.mmol^-1; 0.04 µCi per well), thymidine and 5-fluorodeoxyuridine (each at final concentrations of 0.5 µM) were added in medium to cultures (20 µl per well) 24 h before terminating the cultures.
1989, 81:1088-1092, where growth, as indicated by staining or thymidine incorporation, corresponded to 50% of that of the control cultures.
The effect of DACA on the growth of cultured cells was assessed by continuous drug exposure. […] These values were similar to those of other human leukaemia cell lines, which ranged from 290 to 760 nM (CEM-CCRF, 410 nM; MOLT-4, 290 nM; Daudi, 400 nM; Raji, 370 nM, U937, 590 nM; HL-60, 620 nM; K-562, 760 nM). Four multidrug-resistant cell lines, developed from JL and JB1 by in vitro exposure to increasing concentrations of doxorubicin (LD and B1D) or amsacrine (LA and B1A) (Finlay G.J., et al., J. Natl. Cancer Inst. 1990, 82, 662-667, Snow K., et al., Br. J. Cancer 1991, 63, 17-28) were tested.

[2] = tested on: primary human melanoma cultures; assay: cells; details: for IC50: Homo sapiens
Procedure: Acridine carboxamide hydrochloride, synthesised in the Cancer Research Laboratory (Atwell G.J., et al., J.Med. Chem. 1987, 30, 664-669), and amsacrine isethionate, obtained from the Parke-Davis Division of the Warner-Lambert Company, Ann Arbor, USA, were dissolved in 50% v/v aqueous ethanol to make stock solutions of 2-5 mmol/l and stored at -20°C. Other cytotoxic drugs were available either from the NCI repository (Monks A., et al., J. Natl. Cancer Inst. 1991, 83, 757-766) or were obtained as described in Marshall E.S., et al., J. Natl. Cancer Inst. 1992, 84, 341-344 and Finlay, et al., Eur. J. Cancer din. Oncol. 1986, 22, 655-662. Cell lines were from the NCI repository except for MM-96 (Dr. R. Whitehead, Ludwig Institute, Melbourne, Australia), FME (Dr. K.M. Tveit, Norwegian Radium Hospital, Oslo, Norway) and Jurkat normal and multidrug-resistant lines (Dr. K. Snow and Dr. W. Judd, Department of Cellular and Molecular Biology, University of Auckland). Melanoma tissue was obtained from patients with pathologically confirmed metastatic and recurrent melanomas under Auckland Hospital Ethical Committee guidelines. Cells were released by digestion of tissue (at 50 mg.ml^-1) with collagenase (1 mg.ml^-1) and DNAase (50 µg.ml^-1) with continuous stirring at 37°C for 1 to 2 hours, and cultured as previously described (Marshall E.S., et al., J. Natl. Cancer Inst. 1992, 84, 341-344).
Tumour cell lines were cultured in 96-well plates. Growth of NCI cell lines was assessed using sulpho-rhodamine B staining (Skehan P., et al., J. Natl. Cancer Inst. 1990, 82, 1107-1112), that of the leukaemia lines with (4,5-dimethylthiazole-2-yl)-2,5-diphenyltetrazolium (MTT) staining (Mosmann T., J. Immun. Methods 1983, 65, 55-63) and that of the primary human tumour material by ^3H-thymidine incorporation (Marshall E.S., et al., J. Natl. Cancer Inst. 1992, 84, 341-344). Primary tumour material was cultured in 96-well plates in which the wells were coated with agarose to inhibit selectively the growth of normal cells. (Marshall E.S., et al., J. Natl. Cancer Inst. 1992, 84, 341-344). Primary cultures were incubated at 37°C in sealed perspex boxes containing a humidified atmosphere of 5% CO2 and 5% O2 in nitrogen for 7 days. 5-Methyl-[^3H]-thymidine (20 Ci.mmol^-1; 0.04 µCi per well), thymidine and 5-fluorodeoxyuridine (each at final concentrations of 0.5 µM) were added in medium to cultures (20 µl per well) 24 h before terminating the cultures. Cells were aspirated on to glass fibre filters using a multiple automated sample harvester (LKB Wallac OY Beta Harvester). The filter discs were washed for 15 seconds with water, dried, and the amount of tritium retained quantified by liquid scintillation.
IC50 values were defined as in Paull K.D., et al., J. Natl. Cancer Inst. 1989, 81:1088-1092, where growth, as indicated by staining or thymidine incorporation, corresponded to 50% of that of the control cultures. […] Variances of DELTA values were expressed as standard deviations in log10 units. Comparison of DELTA values was made using Pearson correlation coefficients. Resistance factors were defined as the ratios of IC50 values between the resistant line and the parent line. Statistical evaluation was performed either with NCI programmes, with RS/1 software (BBN Research Systems, Cambridge, MA, USA), or with Sigmaplot (Jandel Scientific, San Rafael, CA, USA).
DACA was also compared in a series of 12 primary melanoma cultures. Tissue was excised from human malignant melanomas and cultured using a modified 96-well assay system in which the cells were cultured on agarose and assayed for proliferation using the ^3H-thymidine incorporation assay as described in Marshall E.S., et al., J. Natl. Cancer Inst. 1992, 84, 341-344.

Compound: CN(C)CCNC(=O)c1cccc2cc3ccccc3nc12 [DACA, N-[2-(dimethylamino)ethyl]acridine-4-carboxamide]
- IC50 [1]: 290 to 760 nM
- IC50 ([2]; read-out: IC50 values): 200 to 1500 nM
- IC50 ([2]; read-out: mean IC50): 590 nM
- proportions of cells killed ([2]; human, primary melanoma cultures): > 99%
